From ChEMBL document CHEMBL2331307, “Modulation of cytochromes P450 with xanthone-based molecules: from aromatase to aldosterone synthase and steroid 11β-hydroxylase inhibition” (J Med Chem, 2013)

How the values were obtained:
[1] = biological target: T1, Cytochrome P450 11B2, mitochondrial (Homo sapiens, UniProt P19099)
T1 sequence (P19099 whole entry): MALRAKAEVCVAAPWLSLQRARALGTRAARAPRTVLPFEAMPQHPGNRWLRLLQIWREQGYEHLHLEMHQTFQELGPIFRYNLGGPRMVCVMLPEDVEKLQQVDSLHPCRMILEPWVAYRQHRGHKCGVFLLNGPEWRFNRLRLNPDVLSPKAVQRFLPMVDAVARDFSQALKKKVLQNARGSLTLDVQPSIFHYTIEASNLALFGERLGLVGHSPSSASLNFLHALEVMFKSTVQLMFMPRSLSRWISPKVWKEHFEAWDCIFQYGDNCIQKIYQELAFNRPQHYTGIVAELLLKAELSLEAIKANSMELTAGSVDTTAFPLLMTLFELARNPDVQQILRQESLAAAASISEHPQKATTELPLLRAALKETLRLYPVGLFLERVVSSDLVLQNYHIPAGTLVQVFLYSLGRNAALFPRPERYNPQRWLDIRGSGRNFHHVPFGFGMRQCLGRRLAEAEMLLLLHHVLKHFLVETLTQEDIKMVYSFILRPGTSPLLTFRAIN
Description: Inhibition of human CYP11B2 expressed in hamster V79MZh cells using [1,2-3H]-11-deoxycorticosterone as substrate

[2] = biological target: T2, Cytochrome P450 11B1, mitochondrial (Homo sapiens, UniProt P15538)
T2 sequence (P15538 whole entry): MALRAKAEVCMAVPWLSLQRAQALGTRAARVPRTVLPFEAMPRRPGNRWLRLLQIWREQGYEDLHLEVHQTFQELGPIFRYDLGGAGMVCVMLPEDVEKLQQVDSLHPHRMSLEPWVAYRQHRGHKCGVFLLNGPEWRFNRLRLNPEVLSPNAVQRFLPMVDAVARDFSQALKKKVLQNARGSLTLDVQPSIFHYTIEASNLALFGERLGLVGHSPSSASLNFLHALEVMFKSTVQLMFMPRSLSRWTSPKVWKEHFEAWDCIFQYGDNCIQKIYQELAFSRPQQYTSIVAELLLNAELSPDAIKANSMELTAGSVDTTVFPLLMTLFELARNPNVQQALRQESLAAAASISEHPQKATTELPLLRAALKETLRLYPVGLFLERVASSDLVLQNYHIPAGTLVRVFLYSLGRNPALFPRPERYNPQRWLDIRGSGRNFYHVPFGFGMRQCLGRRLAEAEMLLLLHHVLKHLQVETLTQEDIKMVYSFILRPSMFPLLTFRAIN
Description: Inhibition of human CYP11B1 expressed in hamster V79MZh cells using [1,2-3H]-11-deoxycorticosterone as substrate

Aromatase = biological target: T3, Aromatase (Homo sapiens, UniProt P11511)
T3 sequence (P11511 whole entry): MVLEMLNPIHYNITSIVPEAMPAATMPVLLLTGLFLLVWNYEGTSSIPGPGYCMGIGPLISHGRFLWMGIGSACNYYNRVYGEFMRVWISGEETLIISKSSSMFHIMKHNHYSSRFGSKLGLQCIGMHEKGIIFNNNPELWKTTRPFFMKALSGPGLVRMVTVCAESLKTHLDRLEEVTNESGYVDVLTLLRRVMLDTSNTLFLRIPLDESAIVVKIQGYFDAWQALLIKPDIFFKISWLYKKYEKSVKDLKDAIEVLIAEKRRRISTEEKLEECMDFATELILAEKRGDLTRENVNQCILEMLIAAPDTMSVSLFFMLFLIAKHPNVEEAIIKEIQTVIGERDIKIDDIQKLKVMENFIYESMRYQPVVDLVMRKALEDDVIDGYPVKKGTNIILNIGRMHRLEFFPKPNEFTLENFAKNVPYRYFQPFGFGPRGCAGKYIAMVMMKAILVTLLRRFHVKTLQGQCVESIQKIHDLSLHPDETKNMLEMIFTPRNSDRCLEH
Description: Inhibition of human placental CYP19 using [1beta-3H]androstenedione as substrate by 3H2O-method

[3] = biological target: T4, Steroid 17-alpha-hydroxylase/17,20 lyase (Homo sapiens, UniProt P05093)
T4 sequence (P05093 whole entry): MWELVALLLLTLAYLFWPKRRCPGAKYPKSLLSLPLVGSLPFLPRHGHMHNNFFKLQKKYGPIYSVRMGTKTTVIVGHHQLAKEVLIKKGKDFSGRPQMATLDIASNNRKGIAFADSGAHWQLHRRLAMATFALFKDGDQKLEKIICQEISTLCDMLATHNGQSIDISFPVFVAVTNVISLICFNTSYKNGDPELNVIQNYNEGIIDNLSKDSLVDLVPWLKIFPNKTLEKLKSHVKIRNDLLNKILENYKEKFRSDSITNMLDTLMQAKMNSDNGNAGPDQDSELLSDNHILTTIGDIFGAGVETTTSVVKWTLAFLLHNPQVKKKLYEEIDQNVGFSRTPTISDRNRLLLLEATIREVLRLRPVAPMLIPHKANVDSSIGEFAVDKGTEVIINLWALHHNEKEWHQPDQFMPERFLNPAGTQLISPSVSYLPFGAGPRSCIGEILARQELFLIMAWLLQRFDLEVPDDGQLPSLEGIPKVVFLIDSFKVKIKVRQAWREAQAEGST
Description: Inhibition of human CYP17 expressed in Escherichia coli co-expressing rat NADPH-P450-reductase using progesterone as substrate

O=c1c2ccccc2oc2cccc(Cn3ccnc3)c12
IC50 [1]: 0.114 µM
IC50 [2]: 0.0991 µM

O=c1c2ccccc2oc2c(Cl)ccc(Cn3ccnc3)c12
IC50 [1]: 0.003 µM
IC50 (Aromatase): 0.48 µM
IC50 [2]: 0.0005 µM
IC50 [3]: 0.26 µM

O=c1c2ccccc2oc2c(I)ccc(Cn3ccnc3)c12
IC50 [1]: 0.0235 µM
IC50 (Aromatase): 0.46 µM
IC50 [2]: 0.0192 µM
IC50 [3]: 1.35 µM

O=c1c2ccccc2oc2c(-c3ccccc3)ccc(Cn3ccnc3)c12
IC50 [1]: 0.104 µM
IC50 (Aromatase): 0.3 µM
IC50 [2]: 0.156 µM
IC50 [3]: 1.89 µM

COc1ccc(Cn2ccnc2)c2c(=O)c3ccccc3oc12
IC50 [1]: 0.0411 µM
IC50 (Aromatase): 1.1 µM
IC50 [2]: 0.0801 µM
IC50 [3]: 0.61 µM

CCOc1ccc(Cn2ccnc2)c2c(=O)c3ccccc3oc12
IC50 [1]: 0.0148 µM
IC50 (Aromatase): 1.97 µM
IC50 [2]: 0.0254 µM
IC50 [3]: > 5 µM

CC(C)Oc1ccc(Cn2ccnc2)c2c(=O)c3ccccc3oc12
IC50 [1]: 0.0191 µM
IC50 (Aromatase): 0.4 µM
IC50 [2]: 0.0925 µM
IC50 [3]: 1.25 µM

CC(C)CCOc1ccc(Cn2ccnc2)c2c(=O)c3ccccc3oc12
IC50 [1]: 0.0252 µM
IC50 (Aromatase): 0.837 µM
IC50 [2]: 0.0244 µM
IC50 [3]: > 5 µM

CCC(C)Oc1ccc(Cn2ccnc2)c2c(=O)c3ccccc3oc12 (configuration not stated)
IC50 [1]: 0.0153 µM
IC50 (Aromatase): 0.575 µM
IC50 [2]: 0.0131 µM
IC50 [3]: > 5 µM

O=c1c2ccccc2oc2c(OCC3CC3)ccc(Cn3ccnc3)c12
IC50 [1]: 0.0241 µM
IC50 (Aromatase): 0.565 µM
IC50 [2]: 0.0055 µM
IC50 [3]: > 5 µM

O=c1c2ccccc2oc2c(OC3CCCC3)ccc(Cn3ccnc3)c12
IC50 [1]: 0.0997 µM
IC50 (Aromatase): 0.26 µM
IC50 [2]: 0.268 µM
IC50 [3]: > 5 µM

O=c1c2ccccc2oc2c(O)ccc(Cn3ccnc3)c12
IC50 [1]: 0.235 µM
IC50 (Aromatase): 0.17 µM
IC50 [2]: 0.416 µM
IC50 [3]: 0.493 µM

Nc1ccc(Cn2ccnc2)c2c(=O)c3ccccc3oc12
IC50 [1]: 0.676 µM
IC50 (Aromatase): 6.39 µM
IC50 [2]: 0.785 µM
IC50 [3]: 1.74 µM

O=c1c2ccccc2oc2c([N+](=O)[O-])ccc(Cn3ccnc3)c12
IC50 [1]: 0.0311 µM
IC50 [2]: 0.0223 µM

N#Cc1ccc(Cn2ccnc2)c2c(=O)c3ccccc3oc12
IC50 [1]: 0.0195 µM
IC50 [2]: 0.0134 µM

O=c1c2ccccc2oc2c(Br)ccc(Cn3ccnc3)c12
IC50 [1]: 0.0085 µM
IC50 [2]: 0.0067 µM

C[C@]12CC[C@H](O)CC1=CC[C@@H]1[C@@H]2CC[C@]2(C)C(c3cccnc3)=CC[C@@H]12 [ABIRATERONE]
IC50 (Aromatase): > 5 µM
